Measured values published in ChEMBL document CHEMBL4152226, “Novel Mannich bases of α- and γ-mangostins: Synthesis and evaluation of antioxidant and membrane-protective activity” (Eur J Med Chem, 2018).
The source made the active and inactive calls. The calls are words filed in the database; no cut-off is given here.

Experiments:
[1] = Antioxidant activity assessed as DPPH radical scavenging activity at 10 to 100 uM incubated in dark for 30 mins; format: functional
[2] = tested on: Erythrocyte; test: Protection against H2O2-induced oxidative stress in mouse RBC assessed as inhibition of hemolysis at 10 uM pretreated for 30 mins followed by H2O2 addition and measured after 5 hrs by malondialdehyde indicator based assay relative to control; format: functional
[3] = tested on: Erythrocyte; test: Protection against H2O2-induced oxidative stress in mouse RBC assessed as inhibition of hemolysis at 1 uM pretreated for 30 mins followed by H2O2 addition and measured after 5 hrs by malondialdehyde indicator based assay relative to control; format: functional
[4] = tested on: Erythrocyte; test: Antioxidant activity against H2O2-induced oxidative stress in mouse RBC assessed as inhibition of LPO accumulation at 10 uM pretreated for 30 mins followed by H2O2 addition and measured after 4 hrs by TBARS assay relative to control; format: functional
[5] = tested on: Erythrocyte; test: Antioxidant activity against H2O2-induced oxidative stress in mouse RBC assessed as inhibition of LPO accumulation at 1 uM pretreated for 30 mins followed by H2O2 addition and measured after 4 hrs by TBARS assay relative to control; format: functional
[6] = tested on: Erythrocyte; test: Hemolytic activity against mouse RBC at 30 uM measured after 5 hrs by malondialdehyde indicator based assay; format: ADME, cell-based
[7] = tested on: Erythrocyte; test: Protection against H2O2-induced oxidative stress in mouse RBC assessed as inhibition of hemolysis at 0.05 uM pretreated for 30 mins followed by H2O2 addition and measured after 5 hrs by malondialdehyde indicator based assay relative to control; format: functional
[8] = tested on: Erythrocyte; test: Antioxidant activity against H2O2-induced oxidative stress in mouse RBC assessed as inhibition of LPO accumulation at 0.05 uM pretreated for 30 mins followed by H2O2 addition and measured after 4 hrs by TBARS assay relative to control; format: functional
[9] = Metal chelating activity assessed as compound-Fe2+ complex formation at 10 uM after 10 mins by FerrozineTM iron reagent based assay
[10] = Antioxidant activity assessed as DPPH radical scavenging activity at 100 uM incubated in dark for 30 mins relative to control; format: functional
[11] = Hemolytic activity against mouse RBC assessed as hemolysis measured after 5 hrs by malondialdehyde indicator based assay relative to control; format: ADME, cell-based, Erythrocyte; details: mouse red blood cells (erythrocytes), read-out: Activity

| SMILES | Activity [1] | inhibition at 10 µM [2] [%] | inhibition at 1 µM [3] [%] | inhibition at 10 µM [4] [%] | inhibition at 1 µM [5] [%] | Activity [6] | inhibition at 0.05 µM [7] [%] | inhibition at 0.05 µM [8] [%] | Activity [9] | Activity [10] [%] | hemolysis at 5 h [11] [%] |
| --- | --- | --- | --- | --- | --- | --- | --- | --- | --- | --- | --- |
| CCCCNCc1c(O)c(CC=C(C)C)c(O)c2c(=O)c3c(CC=C(C)C)c(OC)c(O)cc3oc12 | Active | 31.9 | 46.4 | 70.5 | 60.5 | Non-Toxic | – | – | – | – | – |
| COc1c(O)c(CN2CCCCCC2)c2oc3c(CN4CCCCCC4)c(O)c(CC=C(C)C)c(O)c3c(=O)c2c1CC=C(C)C | Active | 19 | 35 | 54.1 | 34.8 | Non-Toxic | – | – | – | – | – |
| COc1c(O)cc2oc3cc(O)c(CC=C(C)C)c(O)c3c(=O)c2c1CC=C(C)C [MANGOSTIN] | Active | 44.4 to 46.3 | 60.2 to 60.9 | 59.8 to 67 | 54.2 to 66.9 | Non-Toxic | – | – | – | – | – |
| CC(C)=CCc1c(O)cc2oc3cc(O)c(O)c(CC=C(C)C)c3c(=O)c2c1O | Active | – | 15.1 | 68.1 | – | Non-Toxic | 85.9 | 72.8 | – | – | – |
| COc1c(O)cc2oc3c(CN4CCCCCC4)c(O)c(CC=C(C)C)c(O)c3c(=O)c2c1CC=C(C)C | Active | 10.8 | 27.6 | 48.9 | 51.2 | Non-Toxic | – | – | Active | – | – |
| COc1c(O)cc2oc3c(CN4CCCCC4)c(O)c(CC=C(C)C)c(O)c3c(=O)c2c1CC=C(C)C | – | – | – | – | – | – | – | – | – | 13.1 to 16 | – |
| COc1c(O)c(CN2CCOCC2)c2oc3c(CN4CCOCC4)c(O)c(CC=C(C)C)c(O)c3c(=O)c2c1CC=C(C)C | Active | 22 | 75.6 | 57.4 | 76.1 | Non-Toxic | – | – | – | – | – |
| COc1c(O)c(CN2CCCCCC2)c2oc3c(CN4CCOCC4)c(O)c(CC=C(C)C)c(O)c3c(=O)c2c1CC=C(C)C | Active | 17.7 | 37.5 | 33.6 | 56.1 | Non-Toxic | – | – | – | – | – |
| COc1c(O)c(CN(C)C)c2oc3c(CN(C)C)c(O)c(CC=C(C)C)c(O)c3c(=O)c2c1CC=C(C)C | Active | 66.3 | 41 | 58.2 | 56.1 | Toxic | – | – | – | – | – |
| CC(C)=CCc1c(O)c(CN2CCOCC2)c2oc3c(CN4CCOCC4)c(O)c(O)c(CC=C(C)C)c3c(=O)c2c1O | Active | – | 6.9 | 68.8 | – | Non-Toxic | 79.6 | 78.5 | Active | – | – |
| CC(C)=CCc1c(O)c(CN2CCCCCC2)c2oc3c(CN4CCCCCC4)c(O)c(O)c(CC=C(C)C)c3c(=O)c2c1O | Active | – | 9 | 71.5 | – | Non-Toxic | 74.3 | 69 | Active | – | – |
| COc1c(O)cc2oc3c(CN(C)C)c(O)c(CC=C(C)C)c(O)c3c(=O)c2c1CC=C(C)C | – | – | – | – | – | – | – | – | – | 13.1 to 16 | 63.1 |
| CC(C)=CCc1c(O)c(CN(C)C)c2oc3c(CN(C)C)c(O)c(O)c(CC=C(C)C)c3c(=O)c2c1O | Active | – | 15.3 | 75.7 | – | Non-Toxic | 78 | 67.7 | Active | – | – |
| COc1c(O)cc2oc3c(CN4CCCC4)c(O)c(CC=C(C)C)c(O)c3c(=O)c2c1CC=C(C)C | Active | 17.5 | 29.2 | 68.2 | 56.4 | Non-Toxic | – | – | Active | – | – |
| CCCCNCc1c(O)c(CC=C(C)C)c(O)c2c(=O)c3c(CC=C(C)C)c(OC)c(O)c(CN(C)C)c3oc12 | Active | 50 | 36.8 | 61.5 | 53.5 | Non-Toxic | – | – | – | – | – |
| COc1c(O)cc2oc3c(CN4CCOCC4)c(O)c(CC=C(C)C)c(O)c3c(=O)c2c1CC=C(C)C | – | – | – | – | – | – | – | – | – | 13.1 to 16 | – |
